{
  "source": "ChEMBL document CHEMBL4138112",
  "about": "“Synthesis of novel indole derivatives as promising DNA-binding agents and evaluation of antitumor and antitopoisomerase I activities” (Eur J Med Chem, 2017)",
  "key": {"HL-60": {"test_system": "HL-60", "test": "Cytotoxicity against human HL60 cells assessed as reduction in cell viability after 72 hrs by MTT assay", "format": "functional, cell-based", "conditions": "HL-60, 72 h"}, "K562": {"test_system": "K562", "test": "Cytotoxicity against human K562 cells assessed as reduction in cell viability after 72 hrs by MTT assay", "format": "functional, cell-based", "conditions": "K562, 72 h"}, "T47D": {"test_system": "T47D", "test": "Cytotoxicity against human T47D cells assessed as reduction in cell viability after 72 hrs by MTT assay", "format": "functional, cell-based"}, "MCF7": {"test_system": "MCF7", "test": "Cytotoxicity against human MCF7 cells assessed as reduction in cell viability after 72 hrs by MTT assay", "format": "functional, cell-based", "conditions": "MCF7, 72 h"}, "Calf thymus DNA [1]": {"test_system": "Calf thymus DNA", "test": "Binding affinity to calf thymus DNA assessed as hypochromicity at 10 to 80 uM by UV-Visible absorption spectroscopy relative to control", "format": "nucleic-acid assay", "conditions": "Bos taurus"}, "Calf thymus DNA [2]": {"test_system": "Calf thymus DNA", "test": "Binding affinity to calf thymus DNA by UV-Visible absorption spectroscopy", "format": "nucleic-acid assay", "conditions": "Bos taurus"}, "Calf thymus DNA [3]": {"test_system": "Calf thymus DNA", "test": "Inhibition of ethidium bromide binding to calf thymus DNA by fluorescence spectra analysis", "format": "nucleic-acid assay", "conditions": "Bos taurus"}, "Calf thymus DNA [4]": {"test_system": "Calf thymus DNA", "test": "Binding affinity to calf thymus DNA assessed as change in absorption maximum at 10 to 80 uM by UV-Visible absorption spectroscopy (reference value: 425 to 500 nanometer)", "format": "nucleic-acid assay", "conditions": "Bos taurus"}, "Calf thymus DNA [5]": {"test_system": "Calf thymus DNA", "test": "Binding affinity to calf thymus DNA assessed as hyperchromicity at 10 to 80 uM by UV-Visible absorption spectroscopy relative to control", "format": "nucleic-acid assay", "conditions": "Bos taurus"}, "Calf thymus DNA [6]": {"test_system": "Calf thymus DNA", "test": "Inhibition of ethidium bromide binding to calf thymus DNA at 20 to 200 uM by fluorescence spectra analysis", "format": "nucleic-acid assay", "conditions": "Bos taurus"}, "[7]": {"biological_target": "T1, DNA topoisomerase 1 (Homo sapiens) (UniProt P11387)", "T1 sequence (whole entry)": "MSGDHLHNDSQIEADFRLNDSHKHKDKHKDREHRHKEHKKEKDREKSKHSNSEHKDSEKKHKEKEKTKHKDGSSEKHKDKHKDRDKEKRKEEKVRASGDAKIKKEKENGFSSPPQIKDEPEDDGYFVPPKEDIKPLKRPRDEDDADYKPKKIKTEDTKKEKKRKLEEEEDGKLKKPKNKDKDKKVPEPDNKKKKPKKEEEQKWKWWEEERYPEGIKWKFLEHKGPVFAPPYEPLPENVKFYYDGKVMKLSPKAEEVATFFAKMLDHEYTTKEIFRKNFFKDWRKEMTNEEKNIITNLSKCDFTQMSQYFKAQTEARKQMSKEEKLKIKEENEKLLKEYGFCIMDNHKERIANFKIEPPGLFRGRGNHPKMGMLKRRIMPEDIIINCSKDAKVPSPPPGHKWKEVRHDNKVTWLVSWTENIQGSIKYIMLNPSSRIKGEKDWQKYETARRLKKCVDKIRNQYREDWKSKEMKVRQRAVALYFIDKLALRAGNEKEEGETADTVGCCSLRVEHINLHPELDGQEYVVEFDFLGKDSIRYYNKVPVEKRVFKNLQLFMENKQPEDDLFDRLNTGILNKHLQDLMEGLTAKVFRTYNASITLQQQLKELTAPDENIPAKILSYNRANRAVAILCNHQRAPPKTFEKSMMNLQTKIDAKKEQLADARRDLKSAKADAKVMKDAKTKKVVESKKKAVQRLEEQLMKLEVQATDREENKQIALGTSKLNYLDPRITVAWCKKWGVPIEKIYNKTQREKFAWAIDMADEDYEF", "test": "Inhibition of human recombinant topoisomerase 1-mediated relaxation of supercoiled pUC19 DNA at 10 to 50 uM after 45 mins by ethidium bromide staining based agarose gel electrophoresis method"}},
  "note": "The source made the active and inactive calls. No cut-off for these calls is given here.",
  "data": [
    {"smiles": "O=C1NC(=O)/C(=C/c2c[nH]c3ccccc23)S1", "values": [
      {"measurement": "IC50", "setting": "HL-60", "result": 12.8, "unit": "µM"},
      {"measurement": "IC50", "setting": "K562", "result": "> 50", "unit": "µM"},
      {"measurement": "IC50", "setting": "T47D", "result": 1.93, "unit": "µM"},
      {"measurement": "IC50", "setting": "MCF7", "result": "> 50", "unit": "µM"},
      {"measurement": "Activity", "setting": "Calf thymus DNA [1]", "result": 24, "unit": "%"},
      {"measurement": "Kb", "setting": "Calf thymus DNA [2]", "result": 7.26, "unit": "×10⁴ /M"},
      {"measurement": "KSV", "setting": "Calf thymus DNA [3]", "result": 1.59, "unit": "×10³ /M"},
      {"measurement": "Activity", "setting": "Calf thymus DNA [4]", "result": 378, "unit": "nm"}
    ]},
    {"smiles": "COc1cccc2c1C(=O)c1c(O)c3c(c(O)c1C2=O)C[C@@](O)(C(=O)CO)C[C@@H]3O[C@H]1C[C@H](N)[C@H](O)[C@H](C)O1", "note": "[DOXORUBICIN]", "values": [
      {"measurement": "IC50", "setting": "HL-60", "result": 0.01, "unit": "µM"},
      {"measurement": "IC50", "setting": "K562", "result": 6.25, "unit": "µM"},
      {"measurement": "IC50", "setting": "T47D", "result": 4.61, "unit": "µM"},
      {"measurement": "IC50", "setting": "MCF7", "result": 2.71, "unit": "µM"}
    ]},
    {"smiles": "O=C1NC(=S)S/C1=C\\c1c[nH]c2ccccc12", "values": [
      {"measurement": "IC50", "setting": "HL-60", "result": "> 50", "unit": "µM"},
      {"measurement": "IC50", "setting": "K562", "result": "> 50", "unit": "µM"},
      {"measurement": "IC50", "setting": "T47D", "result": "> 50", "unit": "µM"},
      {"measurement": "IC50", "setting": "MCF7", "result": "> 50", "unit": "µM"},
      {"measurement": "Activity", "setting": "Calf thymus DNA [5]", "result": 75, "unit": "%"},
      {"measurement": "Kb", "setting": "Calf thymus DNA [2]", "result": 4.51, "unit": "×10⁴ /M"},
      {"measurement": "KSV", "setting": "Calf thymus DNA [3]", "result": 1.78, "unit": "×10³ /M"},
      {"measurement": "Activity", "setting": "Calf thymus DNA [4]", "result": "436 to 462", "unit": "nm"}
    ]},
    {"smiles": "O=C1NC(=S)S/C1=C\\c1c[nH]c2ccc(Br)cc12", "values": [
      {"measurement": "IC50", "setting": "HL-60", "result": "> 50", "unit": "µM"},
      {"measurement": "IC50", "setting": "K562", "result": "> 50", "unit": "µM"},
      {"measurement": "IC50", "setting": "T47D", "result": 11.7, "unit": "µM"},
      {"measurement": "IC50", "setting": "MCF7", "result": 3.65, "unit": "µM"},
      {"measurement": "Activity", "setting": "Calf thymus DNA [5]", "result": 8, "unit": "%"},
      {"measurement": "Kb", "setting": "Calf thymus DNA [2]", "result": 1.56, "unit": "×10⁴ /M"},
      {"measurement": "KSV", "setting": "Calf thymus DNA [3]", "result": 6.31, "unit": "×10³ /M"},
      {"measurement": "Activity", "setting": "Calf thymus DNA [4]", "result": "462 to 465", "unit": "nm"}
    ]},
    {"smiles": "O=C1NC(=O)/C(=C/c2c[nH]c3ccc(Br)cc23)S1", "values": [
      {"measurement": "IC50", "setting": "HL-60", "result": "> 50", "unit": "µM"},
      {"measurement": "IC50", "setting": "K562", "result": "> 50", "unit": "µM"},
      {"measurement": "IC50", "setting": "T47D", "result": "> 50", "unit": "µM"},
      {"measurement": "IC50", "setting": "MCF7", "result": "> 50", "unit": "µM"},
      {"measurement": "Activity", "setting": "Calf thymus DNA [1]", "result": 6, "unit": "%"},
      {"measurement": "Kb", "setting": "Calf thymus DNA [2]", "result": 5.24, "unit": "×10⁴ /M"},
      {"measurement": "KSV", "setting": "Calf thymus DNA [3]", "result": 3.86, "unit": "×10³ /M"},
      {"measurement": "Activity", "setting": "Calf thymus DNA [4]", "result": 457, "unit": "nm"}
    ]},
    {"smiles": "O=C1NC(=S)N/C1=C\\c1c[nH]c2ccccc12", "values": [
      {"measurement": "IC50", "setting": "HL-60", "result": "> 50", "unit": "µM"},
      {"measurement": "IC50", "setting": "K562", "result": "> 50", "unit": "µM"},
      {"measurement": "IC50", "setting": "T47D", "result": "> 50", "unit": "µM"},
      {"measurement": "IC50", "setting": "MCF7", "result": 12.4, "unit": "µM"},
      {"measurement": "Activity", "setting": "Calf thymus DNA [1]", "result": 11, "unit": "%"},
      {"measurement": "Kb", "setting": "Calf thymus DNA [2]", "result": 6.27, "unit": "×10⁴ /M"},
      {"measurement": "KSV", "setting": "Calf thymus DNA [3]", "result": 1.36, "unit": "×10³ /M"},
      {"measurement": "Activity", "setting": "Calf thymus DNA [4]", "result": 423, "unit": "nm"}
    ]},
    {"smiles": "NN1C(=O)/C(=C/c2c[nH]c3ccccc23)SC1=S", "values": [
      {"measurement": "IC50", "setting": "HL-60", "result": 3.61, "unit": "µM"},
      {"measurement": "IC50", "setting": "K562", "result": 22.5, "unit": "µM"},
      {"measurement": "IC50", "setting": "T47D", "result": "> 50", "unit": "µM"},
      {"measurement": "IC50", "setting": "MCF7", "result": "> 50", "unit": "µM"},
      {"measurement": "Activity", "setting": "Calf thymus DNA [5]", "result": 6, "unit": "%"},
      {"measurement": "Kb", "setting": "Calf thymus DNA [2]", "result": 5.69, "unit": "×10⁴ /M"},
      {"measurement": "Activity", "setting": "Calf thymus DNA [6]", "result": "Active"},
      {"measurement": "KSV", "setting": "Calf thymus DNA [3]", "result": 1.81, "unit": "×10⁴ /M"},
      {"measurement": "inhibition", "setting": "[7]", "result": "Active"},
      {"measurement": "Activity", "setting": "Calf thymus DNA [4]", "result": "504 to 507", "unit": "nm"}
    ]},
    {"smiles": "NN1C(=O)/C(=C/c2c[nH]c3ccc(Br)cc23)SC1=S", "values": [
      {"measurement": "IC50", "setting": "HL-60", "result": 6.74, "unit": "µM"},
      {"measurement": "IC50", "setting": "K562", "result": "> 50", "unit": "µM"},
      {"measurement": "IC50", "setting": "T47D", "result": "> 50", "unit": "µM"},
      {"measurement": "IC50", "setting": "MCF7", "result": "> 50", "unit": "µM"},
      {"measurement": "Activity", "setting": "Calf thymus DNA [5]", "result": 23, "unit": "%"},
      {"measurement": "Kb", "setting": "Calf thymus DNA [2]", "result": 1.84, "unit": "×10⁴ /M"},
      {"measurement": "KSV", "setting": "Calf thymus DNA [3]", "result": 2.96, "unit": "×10³ /M"},
      {"measurement": "Activity", "setting": "Calf thymus DNA [4]", "result": "411 to 413", "unit": "nm"}
    ]}
  ]
}
